The values that follow come from patent US7622438B1, “Protein formulation for promoting hard tissue formation” (Acologix, Inc., priority 2005, dated 2009).

Entries after “also recorded” stand apart in the source; their conditions may differ.

For assay [1], the system named is primary osteoblasts collected from fetal mouse calvaria. The assay can be described thus: Alkaline phosphatase (ALP) activity in primary osteoblasts under suboptimal BMP-2. In kind it is cell-based. Here is the method:
The peptide of SEQ ID No. 8 was added to this culture system at 0, 0.2, 0.4, 1.0, 2.0, and 4.0 μM. The levels of ALP were evaluated on days 0, 3, and 7.

Assay [2] concerns COX-2. The assay can be described thus: Gene expression microarray analysis in Clonetics hMSC cells (COX-2 mRNA). In kind it is cell-based, human. The settings on record: for COX-2 mRNA increase: 1000 ng/ml peptide. As for the experimental part: Materials and Methods: The effect of the peptide of SEQ ID No. 8 treatment on gene expression was assessed in the Clonetics hMSC cells using gene expression microarray analysis as previously described (Locklin et al., 2001). Briefly, cells were plated in five T-150 vented flasks at a density of 1.0×10^6 cells per flask in growth medium and cultured at 37° C. for 48 hours. Flasks containing either vehicle alone or the peptide of SEQ ID No. 8 (1000 ng/ml) were cultured for 24 hr or for 48 h in standard differentiation medium. At each time point, the vehicle and treatment flasks were trypsinized, cells removed and total RNA was extracted for analysis via the Qiagen Rneasy Kit (Qiagen). 8 μg of total RNA were amplified and biotin labeled. The mixture was hybridized to a U95A human gene expression microarray (Affymetrix) containing probes for 12,600 human genes. The chips were then washed, stained with phycoerythrin-streptavidin and read with an Affymetrix scanner. Hybridization intensity values to mRNA frequency were calculated in molecules per million. Analysis of intensity values was conducted using Spotfire Decision Site (Somerville, Mass.) software.

Assay [3] deals with MC3T3-E1 subclone 4 cells. The assay can be described thus: BMP-2 stimulated PGE2 production by MC3T3 cells (ELISA). In kind it is cell-based, mouse. Particulars: suboptimal rhBMP-2 plus varying doses of peptide, 24 hours; FIG. 2. Here is the method:
Methods: MC3T3-E1 subclone 4 cells are neonatal mouse derived calvarial preosteoblasts with fibroblast morphology. […] For this experiment the MC3T3 cells were plated 10^5 cells per well in 24 well plates in growth medium (alpha MEM+1 mM sodium pyruvate+10% fetal bovine serum (FBS)). After 24 hours of culture the media was removed and replaced with assay media (alphaMEM+1 mM sodium pyruvate+2% FBS) containing the test substances. Each test group utilized 4 wells. After incubation for a further 24 hours the media was removed and the levels of PGE2 were determined using an ELISA (R&D Systems).
A general note: In an ELISA, binding on a coated surface is turned into a signal by an enzyme label.

For another assay, the system named is Smad1/5/8. The assay can be described thus: Phosphorylation of Smad1/5/8 by Western blotting in primary osteoblasts. The settings on record: 2 uM peptide added to 25 ng/mL BMP-2; FIG. 3. In kind it is cell-based, mouse. As for the experimental part:
Phosphorylation of Smad1/5/8 was evaluated by Western blotting at 0, 0.5, 1, 2, 12, 24, 48 and 72 hours.
For orientation: Immunoblotting shows a protein as a band on a membrane.

In assay [4] the test system is hemi-calvariae from 4 day old Swiss Webster mice. The assay can be described thus: Mouse calvaria organ culture assay (PGE2, new bone formation histology). In kind it is cell-based. The settings on record: peptide 1, 10, 100 μg/mL daily for seven days. The text has this:
Methods: Calvarial organ cultures have been used for many years to study the regulation of bone formation and bone resorption. An advantage of this method compared to in vivo studies is the absence of confounding effects (such as hormonal and mechanical influences) meaning a more direct effect of the test substances on bone tissue can be determined. Also compared to isolated cell systems, interrelationships between the different cell types in the bone and between these cells and the bone matrix are preserved.
Briefly, hemi-calvariae were isolated from 4 day old Swiss Webster mice and incubated in media on steel mesh grids. The peptide of SEQ ID NO. […] Samples of the conditioned media were collected daily for analysis of PGE2 concentration (R&D Systems ELISA kit). At the end of the culture the bones were analyzed for new bone formation and number of osteoblasts using histology.

The subject of assay [5] is dorsal muscle of mice (ICR). Kind of assay: Ectopic bone formation from polymer pellets implanted in mouse dorsal muscle. It is filed as in vivo. The text has this: The mice were sacrificed 3 weeks later and the newly formed bones were isolated for evaluation using soft X-ray radiograph and bone mineral density determination.
For a further assay, the system named is human mesenchymal cells. Kind of assay: PGE2 in human mesenchymal cells in culture. Particulars: peptide alone. It is filed as cell-based.
Assay [6] relates to hard tissue forming cells. The assay can be described thus: General activity statements on hard tissue forming cells.
For assay [7], the system named is COX-2. Particulars: Nagel et al., Journal of Cellular Biochemistry, 2004; cited from earlier work.
The test system of assay [8] is hemi-calvariae from 4 day old Swiss Webster mice. The settings on record: Middleton-Hardie et al., ASBMR 2005; cited from earlier work.
[9] abbreviates: 2 μM peptide with 25 ng/mL BMP-2.

With TDLQERGDNDISPFSGDGQPFKD [SEQ ID No. 8], in [1] (setting [9]), the “ALP activity increase as compared with BMP-2 treated cells without addition of the peptide” value is around 2 times and the “ALP activity increase as compared with the control group” value was “about 3 times”. Further, the “ALP activity in osteoblastic cells” value in [1] (BMP-2 (suboptimal, 25 ng/mL) plus peptide 0.2-4.0 μM, FIG. 1) is “significantly increased; also recorded: dose dependent upregulation”. The “COX-2 mRNA increase” value in the assay on COX-2 [2] (24 h) worked out at 3.6 fold. Moreover, the “COX-2 mRNA increase” value with COX-2 [2] (48 h) is reported as 2.2 fold. Also, in the assay on COX-2 [2] (discussion summary of both time points), the “mRNA for cyclooxygenase-2 (COX-2) increase, summary” value is around 3 fold. Further, the “BMP-2 induced PGE2 production” value in assay [3] is “increases; also recorded: dose dependent production”. Further, in the assay with Smad1/5/8, the “time over which phosphorylation of Smad1/5/8 was detectable” value lay in the range of 0.5 to 48 h. The PGE2 production result in assay [4] (FIG. 4) was “significant increases”. In assay [4] (FIG. 5), the bone cell density entry is recorded as “significant increases”, the new bone formation result is listed as “significant increases” and the osteoblast surface result was “significant increases”. Moreover, the “enhancement of the BMP-2 effects on bone formation (size and mineral density of ectopic ossicles)” value in assay [5] (3 ug BMP-2 in 30 mg polymer, peptide 0-1250 ug, three weeks) is listed as “significant enhancement”. In addition, in assay [5] (5 ug BMP-2 in 30 mg polymer, peptide 0-1250 ug, three weeks), the “efficacy of the peptide on bone formation (size and mineral density of ectopic ossicles)” value is on record as “unclear”. The “increase in bone formation” value in assay [5] (peptide added to suboptimal dose, 3 μg of rhBMP-2) is “significant and dose dependent increase”. Also, the “increase in PGE2” value in the assay with human mesenchymal cells is listed as “did not result in a significant increase”. In assay [6], the “biological activities for the purpose of this invention, relative ranking” value was “highest activities”. The “COX-2 in human mesenchymal stem cells” value with COX-2 [7] is given as “upregulated”. Moreover, in assay [8], the “production of PGE2 in mouse calvaria organ culture assay” value is reported as “dose dependently upregulated”.
